Test results reported in US8338608B2, “Inhibitors of ion channels” (Icagen Inc., priority 2005, dated 2012).

Biological target: T1, hSCN3A (Homo sapiens, UniProt Q9NY46)
T1 construct: expressed in transfected cells
Assay: SCN3A inhibitory activity in HEK cells stably expressing hSCN3A (whole-cell patch clamp / radiotracer efflux HTS)
Format: cell-based
Settings: HEK cells stably transfected with hSCN3A; read-out: SCN3A Inhibitory Activity

T1 sequence (Q9NY46 whole entry): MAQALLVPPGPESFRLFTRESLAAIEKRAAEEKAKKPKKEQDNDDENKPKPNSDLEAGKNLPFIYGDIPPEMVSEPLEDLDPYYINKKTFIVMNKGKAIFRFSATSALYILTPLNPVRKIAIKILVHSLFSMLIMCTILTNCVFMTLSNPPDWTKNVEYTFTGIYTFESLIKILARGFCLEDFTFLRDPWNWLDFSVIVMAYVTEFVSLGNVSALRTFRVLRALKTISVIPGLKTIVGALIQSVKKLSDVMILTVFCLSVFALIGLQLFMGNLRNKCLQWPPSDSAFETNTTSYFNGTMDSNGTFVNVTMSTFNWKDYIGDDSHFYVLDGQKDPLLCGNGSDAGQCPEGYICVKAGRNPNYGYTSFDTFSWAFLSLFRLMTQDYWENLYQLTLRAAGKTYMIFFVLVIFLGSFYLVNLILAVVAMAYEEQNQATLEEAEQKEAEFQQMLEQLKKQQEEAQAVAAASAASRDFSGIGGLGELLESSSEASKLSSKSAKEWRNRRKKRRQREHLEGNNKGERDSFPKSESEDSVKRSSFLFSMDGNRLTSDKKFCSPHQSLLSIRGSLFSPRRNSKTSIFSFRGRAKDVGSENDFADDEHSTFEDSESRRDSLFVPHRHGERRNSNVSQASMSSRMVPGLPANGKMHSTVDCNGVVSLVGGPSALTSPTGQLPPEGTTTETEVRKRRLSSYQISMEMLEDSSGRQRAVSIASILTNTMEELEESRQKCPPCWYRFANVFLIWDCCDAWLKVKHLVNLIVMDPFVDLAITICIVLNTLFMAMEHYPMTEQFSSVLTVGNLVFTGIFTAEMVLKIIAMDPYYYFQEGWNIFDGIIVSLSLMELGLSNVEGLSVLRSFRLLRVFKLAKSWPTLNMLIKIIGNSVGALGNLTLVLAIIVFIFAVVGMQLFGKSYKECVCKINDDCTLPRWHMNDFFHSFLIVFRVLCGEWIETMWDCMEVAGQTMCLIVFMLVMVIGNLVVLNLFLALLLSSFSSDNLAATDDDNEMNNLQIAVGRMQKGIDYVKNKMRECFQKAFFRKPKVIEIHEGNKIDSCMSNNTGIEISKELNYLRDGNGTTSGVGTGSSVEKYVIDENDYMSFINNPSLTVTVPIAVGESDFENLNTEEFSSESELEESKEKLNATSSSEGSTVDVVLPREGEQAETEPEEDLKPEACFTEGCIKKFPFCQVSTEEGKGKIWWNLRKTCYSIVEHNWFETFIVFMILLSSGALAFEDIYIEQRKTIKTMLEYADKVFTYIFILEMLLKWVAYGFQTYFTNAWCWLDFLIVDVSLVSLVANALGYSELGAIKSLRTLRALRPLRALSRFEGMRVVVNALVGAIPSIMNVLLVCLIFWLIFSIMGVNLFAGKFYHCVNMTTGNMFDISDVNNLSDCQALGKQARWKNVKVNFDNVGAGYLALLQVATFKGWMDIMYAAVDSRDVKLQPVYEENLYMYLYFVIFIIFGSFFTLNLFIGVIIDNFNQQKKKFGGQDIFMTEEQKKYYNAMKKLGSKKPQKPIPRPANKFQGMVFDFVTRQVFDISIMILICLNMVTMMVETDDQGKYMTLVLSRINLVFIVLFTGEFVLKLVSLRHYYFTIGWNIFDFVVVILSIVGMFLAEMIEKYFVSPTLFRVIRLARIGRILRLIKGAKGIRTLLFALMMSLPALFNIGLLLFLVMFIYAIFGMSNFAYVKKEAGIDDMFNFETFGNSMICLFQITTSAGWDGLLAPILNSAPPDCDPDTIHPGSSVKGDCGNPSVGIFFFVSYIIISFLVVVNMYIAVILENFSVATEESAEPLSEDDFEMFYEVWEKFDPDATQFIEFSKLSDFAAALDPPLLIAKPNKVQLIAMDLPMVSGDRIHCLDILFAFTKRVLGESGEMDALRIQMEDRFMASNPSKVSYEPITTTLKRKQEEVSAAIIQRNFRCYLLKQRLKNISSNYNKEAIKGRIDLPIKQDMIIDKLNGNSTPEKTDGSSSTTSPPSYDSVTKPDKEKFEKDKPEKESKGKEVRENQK

Row | Structure (SMILES) | IC50
1 | O=S(=O)(NCCC(c1ccccc1)c1ccccc1)Nc1ccc(S(=O)(=O)Nc2nccs2)nc1 [Compound 22] | 100 to 500 nM
2 | O=S(=O)(NCCc1ccc(Cl)s1)c1ccc(S(=O)(=O)Nc2nccs2)cc1 [Compound 41, Benzene-1,4-disulfonic acid 1-{[2-(5-chloro-thiophen-2-yl)-ethyl]-amide} 4-thiazol-2-ylamide] | 100 to 500 nM
3 | O=S(=O)(NCCOc1ccccc1Cl)Nc1ccc(S(=O)(=O)Nc2nccs2)cc1 [Compound 43, N-[2-(2-chloro-phenoxyl)-ethyl]-N′-[4-(N-thiazol-2-yl-sulfonamyl)-phenyl]-sulfamide] | 500 to 1000 nM
4 | O=S(=O)(NCC(c1ccccc1)c1ccccc1)c1ccc(S(=O)(=O)Nc2nccs2)cc1 [Compound 24, Benzene-1,4-disulfonic acid 1-[(2,2-diphenyl-ethyl)-amide] 4-thiazol-2-ylamide] | 100 to 500 nM
5 | CC(C)(C)CCNS(=O)(=O)c1ccc(S(=O)(=O)Nc2nccs2)c(F)c1 [Compound 42, 2-Fluoro-benzene-1,4-disulfonic acid 4-[(3,3-dimethyl-butyl)-amide] 1-thiazol-2-ylamide] | 100 to 500 nM
6 | O=S(=O)(NCc1cc(F)cc(C(F)(F)F)c1)c1ccc(S(=O)(=O)Nc2nccs2)cc1 [Compound 40, Benzene-1,4-disulfonic acid 1-(3-fluoro-5-trifluoromethyl-benzylamide) 4-thiazol-2-ylamide] | 100 to 500 nM
7 | CC(C)(CNS(=O)(=O)c1ccc(S(=O)(=O)Nc2nccs2)cc1)Nc1ccc(C(C)(C)C)cc1 [Compound 31, Benzene-1,4-disulfonic acid 1-{[2-(4-tert-butyl-phenylamino)-2-methyl-propyl]-amide} 4-thiazol-2-ylamide] | 100 to 500 nM
8 | O=S(=O)(NCCC1CCCCC1)c1ccc(S(=O)(=O)Nc2nccs2)cc1 [Compound 44, Benzene-1,4-disulfonic acid 1-[(2-cyclohexyl-ethyl)-amide] 4-thiazol-2-ylamide] | 500 to 1000 nM
9 | CC(C)(C)c1ccc(OC2(CNS(=O)(=O)c3ccc(S(=O)(=O)Nc4nccs4)cc3)CCCC2)cc1 [Compound 38, Benzene-1,4-disulfonic acid 1-{[1-(4-tert-butyl-phenoxy)-cyclopentylmethyl]-amide} 4-thiazol-2-ylamide] | 100 to 500 nM
10 | CC(C)(CNS(=O)(=O)c1ccc(S(=O)(=O)Nc2nccs2)cc1)c1ccc(Cl)cc1 [Compound 39, Benzene-1,4-disulfonic acid 1-{[2-(4-chloro-phenyl)-2-methyl-propyl]-amide} 4-thiazol-2-ylamide] | 100 to 500 nM
11 | C[C@H](CNS(=O)(=O)c1ccc(S(=O)(=O)Nc2ncc(Cl)s2)cc1)Oc1ccc(Cl)cc1 [Compound 32, Benzene-1,4-disulfonic acid 1-{[(R)-2-(4-chloro-phenoxy)-propyl]-amide} 4-[(5-chloro-thiazol-2-yl)-amide]] | 100 to 500 nM
12 | C[C@@H](CNS(=O)(=O)c1ccc(S(=O)(=O)Nc2ncc(Cl)s2)cc1)Oc1ccc(Cl)cc1 [Compound 33, Benzene-1,4-disulfonic acid 1-{[(S)-2-(4-chloro-phenoxy)-propyl]-amide} 4-[(5-chloro-thiazol-2-yl)-amide]] | 100 to 500 nM
13 | O=S(=O)(NCCC1CCOCC1)Nc1ccc(S(=O)(=O)Nc2nccs2)cc1 [Compound 46, N-[2-(4-tetrahydro-pyranyl]-ethyl]-N′-[4-(N-thiazol-2-yl-sulfonamyl)-phenyl]-sulfamide] | > 1000 nM
14 | O=S(=O)(Nc1ncc(Cl)s1)c1ccc(S(=O)(=O)N2CC(=Cc3ccc(Cl)c(Cl)c3)C2)cc1 [Compound 28, N-(5-chloro-thiazol-2-yl)-4-[3-(3,4-dichloro-benzylidene)-azetidine-1-sulfonyl]-benzenesulfonamide] | 100 to 500 nM
15 | O=S(=O)(NCC1(Oc2ccc(Cl)cc2F)CCC1)c1ccc(S(=O)(=O)Nc2nccs2)cc1 [Compound 20, Benzene-1,4-disulfonic acid 1-{[1-(4-chloro-2-fluoro-phenoxy)-cyclobutylmethyl]-amide} 4-thiazol-2-ylamide] | < 100 nM
16 | O=S(=O)(NCCc1ccc(Cl)c(Cl)c1)Nc1ccc(S(=O)(=O)Nc2nccs2)cc1 [Compound 3] | < 100 nM
17 | O=S(=O)(NCCc1ccc(Cl)c(Cl)c1)c1cc(F)c(S(=O)(=O)Nc2nccs2)cc1F [Compound 25, 2,5-Difluoro-benzene-1,4-disulfonic acid 1-{[2-(3,4-dichloro-phenyl)-ethyl]-amide} 4-thiazol-2-ylamide] | 100 to 500 nM
18 | CC(C)(CNS(=O)(=O)c1ccc(S(=O)(=O)Nc2ncc(Cl)s2)cc1)Oc1ccc(C(C)(C)C)cc1 [Compound 14, Benzene-1,4-disulfonic acid 1-{[2-(4-tert-butyl-phenoxy)-2-methyl-propyl]-amide} 4-[(5-chloro-thiazol-2-yl)-amide]] | < 100 nM
19 | CC(C)(C)CCNS(=O)(=O)c1ccc(S(=O)(=O)Nc2ncc(Cl)s2)cc1 [Compound 7, Benzene-1,4-disulfonic acid 1-[(5-chloro-thiazol-2-yl)-amide] 4-[(3,3-dimethyl-butyl)-amide]] | < 100 nM

Further lines, results first:

Row | IC50 | Structure (SMILES)
20 | < 100 nM | CC(C)(C)c1ccc(CNS(=O)(=O)c2ccc(S(=O)(=O)Nc3nccs3)cc2)cc1 [Compound 11, Benzene-1,4-disulfonic acid 1-(4-tert-butyl-benzylamide) 4-thiazol-2-ylamide]
21 | < 100 nM | Cc1cc(OCCNS(=O)(=O)c2ccc(S(=O)(=O)Nc3nccs3)cc2)ccc1Cl [Compound 18, Benzene-1,4-disulfonic acid 1-{[2-(4-chloro-3-methyl-phenoxy)-ethyl]-amide} 4-thiazol-2-ylamide]
22 | < 100 nM | O=S(=O)(Nc1nccs1)c1ccc(S(=O)(=O)N2CCC(Oc3cccc(Cl)c3)CC2)cc1 [Compound 8, 4-[4-(3-Chloro-phenoxy)-piperidine-1-sulfonyl]-N-thiazol-2-yl-benzenesulfonamide]
23 | < 100 nM | O=S(=O)(NCCC(c1ccccc1)c1ccccc1)Nc1ccc(S(=O)(=O)Nc2nccs2)cc1 [Compound 2, N-(3,3-diphenylpropyl]-N′-[4-(N-thiazol-2-yl-sulfonamyl)-phenyl]-sulfamide]
24 | < 100 nM | O=S(=O)(NCC1(c2ccc(Cl)cc2)CCC1)c1ccc(S(=O)(=O)Nc2nccs2)cc1 [Compound 21, Benzene-1,4-disulfonic acid 1-{[1-(4-chloro-phenyl)-cyclobutylmethyl]-amide} 4-thiazol-2-ylamide]
25 | < 100 nM | O=S(=O)(Nc1ncc(Cl)s1)c1ccc(S(=O)(=O)N2CCN(c3ccc(Cl)cc3F)CC2)cc1 [Compound 10, 4-[4-(4-Chloro-2-fluoro-phenyl)-piperazine-1-sulfonyl]-N-(5-chloro-thiazol-2-yl)-benzenesulfonamide]
26 | < 100 nM | CC(C)(C)c1ccc(NCCNS(=O)(=O)c2ccc(S(=O)(=O)Nc3nccs3)cc2)cc1 [Compound 16, Benzene-1,4-disulfonic acid 1-{[2-(4-tert-butyl-phenylamino)-ethyl]-amide} 4-thiazol-2-ylamide]
27 | < 100 nM | CN(CCNS(=O)(=O)c1ccc(S(=O)(=O)Nc2nccs2)cc1)c1ccc(Cl)cc1 [Compound 13, Benzene-1,4-disulfonic acid 1-({2-[(4-chloro-phenyl)-methyl-amino]-ethyl}-amide) 4-thiazol-2-ylamide]
28 | < 100 nM | O=S(=O)(NCC1(Oc2ccc(Cl)cc2)CCC1)c1ccc(S(=O)(=O)Nc2nccs2)cc1 [Compound 17, Benzene-1,4-disulfonic acid 1-{[1-(4-chloro-phenoxy)-cyclobutylmethyl]-amide} 4-thiazol-2-ylamide]
